Values quoted from earlier work, collected in patent US20080038252A1, “Histamine-Containing Composition for the Treatment of Allergic Diseases” (priority 2005, published 2008).

Test system: allergy animal model
Conditions: same amount as in the complex, administered alone to the allergy animal model (Yoshii)

In the case of `NCCc1c[nH]cn1` [histamine], the anti-inflammatory effect is given as “not produced”.
